{"source": "patent US4587233A", "about": "“Use of Arg-Phe-amide derivatives” (Board of Trustees of the Leland Stanford Junior University, priority 1983, dated 1986)", "key": {"[1]": {"system": "Blood Pressure of Anesthetized Rats", "test": "Blood pressure bioassay in urethane-anesthetized rats, peptides injected intravenously", "format": "in vivo, male Sprague-Dawley rats", "design": "key to Duration of blood pressure effect: +: short-lasting blood pressure elevation at all doses; ++: short-lasting blood pressure elevation at low doses; +++: long-lasting elevation at low doses", "settings": "i.v.; for Maximal increase in blood pressure mm Hg diastolic / Maximal increase in blood pressure mm Hg systolic: over the dose-range tested (nmol/kg)", "method": "Bioassays were conducted on male Sprague-Dawley rats, weighing 250-450 g, and anesthetized by an intraperitoneal injection of a 25 percent urethane solution (1.25 g/kg). The left femoral artery was cannulated with PE 50 polyethylene tubing for monitoring of blood pressure with a pressure transducer RP-1500 (Narco Biosystems). Injections of peptides or drugs were made via a PE 10 tubing into the left femoral vein. Respiration was measured by an impedance method by which the respiratory movements of the chest are registered. The method gives indirect information on respiration amplitude. Heart and respiration frequency were obtained by using biotachometer couplers which measure mean frequencies. Body temperature was measured in the rectum with a thermistor (Yellow Springs Instruments) and maintained between 36.5° and 37.5° C. Peptides or drugs were dissolved in sterile H2 O and the volumes injected intravenously were usually 0.1 ml and never exceeded 0.2 ml."}, "[2]": {"system": "pressor activity of FMRF-NH2 in urethane-anesthetized rats", "test": "Pressor activity of FMRF-NH2 after pretreatment with vasodepressor drugs and pharmacologic antagonists", "format": "in vivo", "settings": "for Effect of drug pretreatment on pressor activity of FMRF-NH2: FMRF-NH2 challenge 16, 128, 512 nmol/kg i.v. 5-10 minutes after drug pretreatment; for Attenuation of the FMRFamide pressor effect: FMRF-NH2 challenge 16, 128, 512 nmol/kg i.v. after pretreatment with drugs interacting with the α-adrenergic system; for Effect of lower doses of drug on FMRFamide pressor effect: effective at blocking norepinephrine hydrochloride 3 to 15 μg/kg"}, "[3]": {"system": "pressor effects of angiotensin II, Arg^8 -vasopressin, norepinephrine hydrochloride", "test": "Effectiveness of the antagonists against their respective pressor agonists", "format": "in vivo, rats", "settings": "for Blocking of the pressor effects of norepinephrine hydrochloride: lower doses of drug, norepinephrine hydrochloride 3 to 15 μg/kg"}}, "note": "Counter-ions that a name gives are not always drawn.", "data": [{"compound": "N=C(N)NCCC[C@H](N)C(=O)O", "note": "[R--OH, arginine]", "values": [{"measurement": "Pressor activity (blood pressure elevation), in words", "setting": "[1]", "value": "Neither arginine nor phenylalanine nor phenylalanine-amide were active"}, {"measurement": "Maximal increase in blood pressure mm Hg diastolic", "setting": "[1]", "value": 0, "unit": "mm Hg"}, {"measurement": "Maximal increase in blood pressure mm Hg systolic", "setting": "[1]", "value": 0, "unit": "mm Hg"}]}, {"compound": "CN1CCC(=C2c3ccccc3C=Cc3ccccc32)CC1", "note": "[cyproheptadine]", "values": [{"measurement": "Effect of drug pretreatment on pressor activity of FMRF-NH2", "setting": "[2]", "value": "did not modify"}]}, {"compound": "C=CCN1CC[C@]23c4c5ccc(O)c4O[C@H]2C(=O)CC[C@@]3(O)[C@H]1C5.Cl", "note": "[nalozone hydrochloride]", "values": [{"measurement": "Effect of drug pretreatment on pressor activity of FMRF-NH2", "setting": "[2]", "value": "did not modify"}]}, {"compound": "C[N+](C)(C)CCCCCC[N+](C)(C)C", "note": "[hexamethonium bromide]", "values": [{"measurement": "Effect of drug pretreatment on pressor activity of FMRF-NH2", "setting": "[2]", "value": "not blocked"}]}, {"compound": "(1-(β-mercapto-β,β-cyclopentamethylene propionic acid), 2-(0-methyl)tyrosine)Arg^8 -Vasopressin", "values": [{"measurement": "Effect of drug pretreatment on pressor activity of FMRF-NH2", "setting": "[2]", "value": "not blocked"}, {"measurement": "Antagonism of Arg^8 -vasopressin", "setting": "[3]; agonist Arg^8 -vasopressin 1 μg/kg", "value": "effective antagonists"}]}, {"compound": "nitroprusside", "values": [{"measurement": "Effect of drug pretreatment on pressor activity of FMRF-NH2", "setting": "[2]", "value": "did not modify"}]}, {"compound": "Cc1ccc(N(CC2=NCCN2)c2cccc(O)c2)cc1", "note": "[phentolamine hydrochloride]", "values": [{"measurement": "Attenuation of the FMRFamide pressor effect", "setting": "[2]", "value": "30-75%"}, {"measurement": "Effect of lower doses of drug on FMRFamide pressor effect", "setting": "[2]", "value": "did not affect"}, {"measurement": "Blocking of the pressor effects of norepinephrine hydrochloride", "setting": "[3]", "value": "effective at blocking"}]}, {"compound": "c1ccc(CC2=NCCN2)cc1", "note": "[tolazoline hydrochloride]", "values": [{"measurement": "Attenuation of the FMRFamide pressor effect", "setting": "[2]", "value": "30-75%"}, {"measurement": "Effect of lower doses of drug on FMRFamide pressor effect", "setting": "[2]", "value": "did not affect"}, {"measurement": "Blocking of the pressor effects of norepinephrine hydrochloride", "setting": "[3]", "value": "effective at blocking"}]}, {"compound": "NC(=O)[C@@H](N)Cc1ccccc1", "note": "[F--NH2, phenylalanine-amide]", "values": [{"measurement": "Pressor activity (blood pressure elevation), in words", "setting": "[1]", "value": "Neither arginine nor phenylalanine nor phenylalanine-amide were active"}, {"measurement": "Maximal increase in blood pressure mm Hg diastolic", "setting": "[1]", "value": 0, "unit": "mm Hg"}, {"measurement": "Maximal increase in blood pressure mm Hg systolic", "setting": "[1]", "value": 0, "unit": "mm Hg"}]}, {"compound": "CNCC(=O)N[C@@H](CCCN=C(N)N)C(=O)N[C@H](C(=O)N[C@@H](Cc1ccc(O)cc1)C(=O)N[C@H](C(=O)N[C@@H](Cc1cnc[nH]1)C(=O)N1CCC[C@H]1C(=O)N[C@@H](C)C(=O)O)C(C)C)C(C)C", "note": "[saralasin]", "values": [{"measurement": "Effect of drug pretreatment on pressor activity of FMRF-NH2", "setting": "[2]", "value": "not blocked"}, {"measurement": "Antagonism of angiotensin II", "setting": "[3]; agonist angiotensin II 2 μg/kg", "value": "effective antagonists"}]}, {"compound": "Clc1cccc(Cl)c1N=C1NCCN1", "note": "[clonidine hydrochloride]", "values": [{"measurement": "Attenuation of the FMRFamide pressor effect", "setting": "[2]", "value": "30-75%"}]}, {"compound": "COC(=O)[C@H]1[C@H]2C[C@@H]3c4[nH]c5cc(OC)ccc5c4CCN3C[C@H]2C[C@@H](OC(=O)c2cc(OC)c(OC)c(OC)c2)[C@@H]1OC", "note": "[reserpine]", "values": [{"measurement": "Effect of drug pretreatment on pressor activity of FMRF-NH2", "setting": "[2]", "value": "did not modify"}]}, {"compound": "CCCO", "note": "[propanol hydrochloride]", "values": [{"measurement": "Effect of drug pretreatment on pressor activity of FMRF-NH2", "setting": "[2]", "value": "not blocked"}]}, {"compound": "CN1[C@@H]2CC[C@H]1C[C@@H](OC(=O)C(CO)c1ccccc1)C2", "note": "(stereo partly drawn) [atropine]", "values": [{"measurement": "Effect of drug pretreatment on pressor activity of FMRF-NH2", "setting": "[2]", "value": "did not modify"}]}, {"compound": "CN1C[C@H](C(=O)N[C@]2(C)O[C@@]3(O)[C@@H]4CCCN4C(=O)[C@H](Cc4ccccc4)N3C2=O)C[C@@H]2c3cccc4[nH]cc(c34)C[C@H]21", "note": "[dihydroergotamine mesylate]", "values": [{"measurement": "Attenuation of the FMRFamide pressor effect", "setting": "[2]", "value": "30-75%"}]}, {"compound": "CC(COc1ccccc1)N(CCCl)Cc1ccccc1", "note": "(stereo not drawn) [Phenoxybenzamine hydrochloride]", "values": [{"measurement": "Effect of drug pretreatment on pressor activity of FMRF-NH2", "setting": "[2]", "value": "no effect"}]}, {"compound": "N[C@@H](Cc1ccccc1)C(=O)O", "note": "[F-- OH, phenylalanine]", "values": [{"measurement": "Pressor activity (blood pressure elevation), in words", "setting": "[1]", "value": "Neither arginine nor phenylalanine nor phenylalanine-amide were active"}, {"measurement": "Maximal increase in blood pressure mm Hg diastolic", "setting": "[1]", "value": 0, "unit": "mm Hg"}, {"measurement": "Maximal increase in blood pressure mm Hg systolic", "setting": "[1]", "value": 0, "unit": "mm Hg"}]}, {"compound": "gamma 1-melanotropic stimulating hormone [q MSH]", "values": [{"measurement": "Duration of blood pressure effect", "setting": "[1]", "value": "+++"}, {"measurement": "Pressor activity (blood pressure elevation), in words", "setting": "[1]", "value": "exhibits pressor activity"}, {"measurement": "Maximal increase in blood pressure mm Hg diastolic", "setting": "[1]", "value": 70, "unit": "mm Hg"}, {"measurement": "Maximal increase in blood pressure mm Hg systolic", "setting": "[1]", "value": 90, "unit": "mm Hg"}]}]}
